Tests used:
Assay type in all cases: cell-based
ADBR2 = biological target: T1, ADBR2 (Homo sapiens, UniProt P07550); assay: CRE-Luc reporter Gs signaling assay, control receptor ADBR2
T1 construct: host or cells: HEK293 or CHO cell lines (ATCC)
Method: (§1) Compounds were tested in the reporter system with increasing concentrations of GPR174-interacting compounds. GPR174 construct pCMV6-XL4-GPR174 or ADBR2, reporter of interest, pCRE-Luc or GL4.29 (3000 ng), and TK-renilla as an internal control (10 ng) with lipofectamine 2000 (60 ug) (Invitrogen, CA) according to the manufacturer's directions.
(§2) The DNA/lipofectamine 2000 mix (3000 μL) was incubated at room temperature for 30 minutes and then added into a 10 cm culture dish (Corning, NY) containing 70-90% confluent cultured cells, typically HEK293 or CHO cell lines (ATCC, VA), in 15 mL of media. The cells were further incubated for 4-6 hours at 37° C. and then media were removed and cells were detached with 2 mL trypsin (Life Technologies, CA). Media (26 mL) were added to the detached cells and 120 μL of transfected cells were transferred to each well on a 96-well plate. Increasing concentration of each compound in DMSO (1.2 μl) was added to the cells after plating into the 96-well plate. The cells were further incubated at 37° C. for various times. The media were removed and the cells lysed. Luciferase and renilla activities were measured with the Dual-luciferase assay system (Promega, WI) according to the manufacturer's directions. Typically, lysis buffer (25 μL) was added to the cells and incubated at room temperature for 20-30 minutes to allow for the cells to lyse. The lysate (10 μL) was measured for luciferase and renilla activity with LARII and Stop&Glo reagent (50 μL each) with a SpectraMax L (Molecular Devices, CA). Data were analyzed with either Excel (Microsoft, WA) or Prism 4.03 (GraphPad, CA).
(§3) ADBR2 is a GPCR, like GPR174, that activates the Gs signaling pathway.

[1] = system: PD-L1, TIGIT, AREG expression in human T cells; assay: PD-L1, TIGIT and AREG expression on human T cells in PBMC cultures; conditions: 1.25 or 5 μM; one day post-stimulation; dose-dependent
Method: PBMC cells from a single donor mixed with additional irradiated antigen-presenting cells (APC) and anti-CD3 antibodies (UCHT1) were incubated in the presence of various concentrations of GPR174 inhibitory compound #10 (1.25 to 5 μM) or equivalent concentrations of vehicle (DMSO). The cells were analyzed by flow cytometry for expression of CD4, CD8, PD-L1, TIGIT and AREG.

[2] = system: CTLA4 expression in human PBMC T cells; assay: CTLA4 expression on T cell subsets in human PBMC cultures; conditions: 0.19-6.0 μM; one day post-stimulation; dose-dependent
Method: PBMC cells from a single donor were cultured overnight with additional irradiated antigen-presenting cells (APC) in the presence of various concentrations of GPR174 inhibitory compound #10 (0.019 to 6 μM) or equivalent concentrations of vehicle (DMSO). Anti-CD3 (OKT3) was then added to the cultures for an additional 24 hours. The cells were analyzed by flow cytometry for expression of FOXP3, CTLA-4, CD4, CD3, CD45RA and CD25.

GPR174 = GPR174 (Homo sapiens, UniProt Q9BXC1); assay: CRE-Luc reporter Gs signaling assay, cells transfected with GPR174; set-up: host or cells: HEK293 or CHO cell lines (ATCC); conditions: CRE-Luc reporter
Method: as §1, §2, §3

human PBMCs = assay: Cytokines in culture supernatants of stimulated human PBMCs (ELISA / LEGENDplex)
Method: The effect of compound #10 on IL-2 and IFN-γ production in human PBMCs was determined as follows. PBMCs from a single donor were adjusted to a density of 2×10^6 cells/mL, stimulated with 100 ng/mL of anti-CD3 and 100 ng/mL of anti-CD28 antibodies and treated with 1 μM, 3 μM, or 10 μM of compound #10. Supernatant from these cells was taken on day 2 post-stimulation and the levels of IL-2 and IFN-γ were determined by ELISA assay using Ready-SET-Go ELISA kits from Affimetrix Ebioscience according to the manufacturer's instructions.
The effect of compound #10 on IL-2 production in human PBMCs was determined as follows. […] Supernatant from these cells was taken on day 3 post-stimulation and the levels of IL-2 were determined by ELISA assay using Ready-SET-Go™ ELISA kits from Affimetrix Ebioscience and LEGENDplex™ bead-based immunoassays from BioLegend according to the manufacturer's instructions.
The effect of compound #10 on IL-2 production in human PBMC from each donor was determined as follows. PBMC from each donor were adjusted to a density of 2×10^6 cells/mL, stimulated with 100 ng/mL of anti-CD3 and 100 ng/mL of anti-CD28 antibodies and treated with 30 μM compound #10. Supernatant from these cells was taken on day 2 post-stimulation and the levels of IL-2 were determined by ELISA assay using LEGENDplex™ bead-based immunoassays from BioLegend (San Diego, CA) according to the manufacturer's instructions.
The effect of compound #10 on the production of a panel of additional cytokines (interleukin 5 (IL-5), interleukin 13 (IL-13), interleukin 6 (IL-6), interleukin 9 (IL-9), interleukin 10 (IL-10), interferon gamma (IFN-γ), tumor necrosis factor alpha (TNF-α), interleukine 17A (IL-17A), interleukin 17F (IL-17F), interleukin 4 (IL-4) and interleukin 22 (IL-22)) in pooled human PBMC obtained from eight donors was determined as follows. PBMC from eight donors were pooled, then adjusted to a density of 2×10^6 cells/mL, stimulated with 100 ng/mL of anti-CD3 and 100 ng/mL of anti-CD28 antibodies and treated with 30 μM compound #10. Supernatant from these cells was taken on day 2 post-stimulation and the levels of IL-5, IL-13, IL-6, IL-9, IL-10, IFN-γ, TNF-α, IL-17A, IL-17F, IL-4 and IL-22 were determined by ELISA using LEGENDplex™ bead-based immunoassays from BioLegend (San Diego, CA) according to the manufacturer's instructions.

[3] = day 2, 30 μM, PBMC from eight donors, p<0.001
[4] = day 2, 30 μM, PBMC from eight donors, p<0.05

GPR174, sequence (Q9BXC1 whole entry): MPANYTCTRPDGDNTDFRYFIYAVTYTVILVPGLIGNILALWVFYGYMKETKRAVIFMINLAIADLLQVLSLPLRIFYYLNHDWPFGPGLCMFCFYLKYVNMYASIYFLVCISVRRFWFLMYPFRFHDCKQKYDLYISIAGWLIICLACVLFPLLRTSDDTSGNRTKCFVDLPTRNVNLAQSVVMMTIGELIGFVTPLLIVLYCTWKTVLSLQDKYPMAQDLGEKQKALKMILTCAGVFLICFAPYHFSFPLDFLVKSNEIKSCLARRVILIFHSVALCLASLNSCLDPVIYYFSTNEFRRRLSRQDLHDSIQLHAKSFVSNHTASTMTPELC
T1 sequence (P07550 whole entry): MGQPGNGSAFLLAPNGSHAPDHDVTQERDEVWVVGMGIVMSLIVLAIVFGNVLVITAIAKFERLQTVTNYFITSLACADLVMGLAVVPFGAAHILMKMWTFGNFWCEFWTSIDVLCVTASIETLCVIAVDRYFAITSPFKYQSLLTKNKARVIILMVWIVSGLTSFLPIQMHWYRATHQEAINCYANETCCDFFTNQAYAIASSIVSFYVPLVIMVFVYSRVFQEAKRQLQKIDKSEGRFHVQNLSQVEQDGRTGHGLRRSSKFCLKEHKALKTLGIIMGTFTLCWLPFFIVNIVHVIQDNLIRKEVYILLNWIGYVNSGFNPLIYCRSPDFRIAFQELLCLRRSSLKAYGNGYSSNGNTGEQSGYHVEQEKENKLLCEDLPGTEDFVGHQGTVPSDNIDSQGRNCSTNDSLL

CC1CCN(c2cc(N3CCN(S(=O)(=O)c4ccccc4)CC3)c([N+](=O)[O-])cc2F)CC1 [Compound 10]
effect on Gs pathway in the presence of ADBR2 (ADBR2): did not inhibit the Gs pathway | fraction of human CD4+ T cells with AREG positive staining [1]: reduced | fraction of human CD4+ T cells with PD-L1 positive staining [1]: reduced | fraction of human CD8+ T cells with TGIT positive staining [1]: reduced | CTLA4 positive fraction of memory Treg (CD45RA−FOXP3+) [2]: reduced | CTLA4 positive fraction of memory non-Treg (CD45RA−FOXP3−) [2]: reduced | CTLA4 positive fraction of naïve non-Treg cells (CD45RA+FOXP3−) [2]: reduced | CTLA-4 positive fraction of naïve Treg cells (CD45RA+FOXP3+) [2]: reduced | effect on Gs pathway in the presence of GPR174 (GPR174): inhibited the Gs pathway | IL-6 in culture supernatants (fold over vehicle) (human PBMCs; [3]): statistically significant fold increase | IL-17A in culture supernatants (fold over vehicle) (human PBMCs; [3]): statistically significant fold decrease | IFN-γ in culture supernatants (fold over vehicle) (human PBMCs; [4]): statistically significant fold increase | IL-10 in culture supernatants (fold over vehicle) (human PBMCs; [4]): statistically significant fold increase | TNF-α in culture supernatants (fold over vehicle) (human PBMCs; [4]): statistically significant fold increase | IL-2 (pg/mL) in culture supernatants (human PBMCs; day 3 post-stimulation, 3, 10, 30, 60 μM, single donor): increased IL-2 levels in culture supernatants in a dose-dependent manner
